# Results from US12551532B2, “Long-acting amylin receptor agonists and uses thereof” (Eli Lilly and Company, priority 2021, dated 2026).
# Starred links: 1 amine or outer side, 2 acyl side, 3 side chain; linkers in the order of their positions; H or OH if unused. Positions of bridges follow the written chain, without caps; N, C: chain ends. Non-standard residues stand in square brackets, D forms with d. Residues, ends and D or L forms follow the SMILES beside them. Groups on a side chain read outwards from the residue. *: point of attachment. C20 diacid = O=C(O)CCCCCCCCCCCCCCCCCCC(=O)*; γGlu = O=C(O)[C@H](CCC(=O)[*:2])N[*:1]; αMeL = CC(C)C[C@](C)(N)C(=O)O; Orn = NCCC[C@H](N)C(=O)O; CH2 = C([*:1])[*:2]
# Key:
# [1] = Pharmacokinetics in male Sprague Dawley rats; type: in vivo; details: single SC 30 nmol/kg, mean
# Protocol: The pharmacokinetics of Compound II (SEQ ID NO:2), Compound IV (SEQ ID NO:4), Compound VI (SEQ ID NO:6), and Compound VIII (SEQ ID NO:8) are evaluated following a single subcutaneous administration of 30 nmol/kg to male Sprague Dawley rats. Blood samples are collected at 1, 3, 6, 12, 24, 48, 72, 96 hours post SC dose. The resulting individual plasma concentrations are used to calculate pharmacokinetic parameters. Peptide plasma (K3EDTA) concentrations are determined using a qualified LC/MS method that measured the intact mass of the peptides. Each peptide and an analog as an internal standard are extracted from plasma. A high resolution Thermo Q-Exactive is used for LC/MS detection.
# [2] = Food intake and body weight in normal rats, single SC dose; type: in vivo, Sprague Dawley rats; details: for Δ Body Weight: 96 hours post dose vs initial weights; for Cumulative Food Intake Change vs Vehicle: 96 hours post dose vs vehicle
# Protocol: Male Sprague Dawley rats from Envigo RMS (Indianapolis, IN) are maintained on a chow diet (2014; Teklad Global, Envigo RMS, Indianapolis, IN) and single housed in a temperature-controlled facility (72.0° F.; 22.2° C.) with a reversed 12:12-hour light cycle (10 AM OFF) and free access to food and water. At 10 weeks of age, non-fasted body weights and initial food weights are recorded, and animals are administered a single subcutaneous injection (SC) of vehicle or acylated peptide (1 mL/kg), followed by daily measurements of body weight and food intake for 4 days post dose. Area under the curve analysis (AUC) is calculated for both body weight and food intake versus vehicle.
# [3] = Body weight and body composition in diet-induced obese rats, 2-week study; type: in vivo, Long Evan rats; details: DIO rats, at 2 weeks vs initial
# Protocol: Male Long Evan rats from Envigo RMS (Indianapolis, IN) at 14 weeks of age are put on a high fat diet (40% of kcal from fat, TD.95217; Envigo RMS, Indianapolis, IN) until 35-45 weeks old. Animals are individually housed in a temperature-controlled facility (75.0° F.; 23.9° C.) with a 12-hour reverse light/dark cycle (lights OFF at 10 AM) and free access to food and water. Body weights are recorded and body composition (fat mass) is determined using Quantitative Nuclear Magnetic Resonance Analysis (ECHO MRI, 3-1 Composition Analyzer; Echo Medical Systems, Houston, TX), followed by randomization into experimental groups (n=5). Rats are administered subcutaneous injections of vehicle or peptide (1 mL/kg) every three days (day 1, 4, 7, 10, and 13). Daily body weights are recorded and changes at end of treatment (day 14) are calculated as percentages versus pre-treatment weights (day 1). Body composition is determined on day 14, and changes in fat mass and fat-free mass (body weight−fat mass) are calculated from pre-treatment values as gram changes.
# hAMY1R = biological target: T1, hAMY1R (Homo sapiens, UniProt O60894+P30988); experiment: hAMY1R competitive radioligand binding filter assay (125I-rAMY); details: ± SE; membranes of hAMY1R overexpressing cells
# T1 construct: expressed in transfected cells
# T1 sequence (O60894 27-148 partner, one chain of several): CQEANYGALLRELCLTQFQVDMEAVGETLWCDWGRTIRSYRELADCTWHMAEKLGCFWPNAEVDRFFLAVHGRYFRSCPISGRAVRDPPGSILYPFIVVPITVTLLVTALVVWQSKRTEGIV
# Protocol: (§1) The equilibrium dissociation constants (Kd) for the various receptor/radioligand interactions are determined from saturation binding analysis using the same reagents and buffers as described below for compound testing.
# The receptor binding affinity (Ki) of rAMY, hCT, and hAMY agonist peptides are determined from a competitive radioligand binding filter assay. The assay buffer consists of (in mM) 50 HEPES, pH 7.1, 5 MgCl2, 5 KCl, 0.2% (w/v) bacitracin, 0.003% (w/v) saponin and is used to dilute radioligand and membrane preparation. Binding reactions are carried out in 0.1 mL total reaction volume in a polystyrene 96 deep-well assay block. […] Test compounds and non-specific binding (NSB—defined as 300 nM rAMY) are added to aliquots of radioactivity buffer. […] The binding reaction is initiated by the addition of 0.05 mL of 200 μg/mL hAMY1R diluted in assay buffer to the radioactivity. Assay blocks are gently vortexed, sealed with parafilm, and incubated at RT for approximately 20 hours. […] At the end of the incubation, bound ligand is separated from free by addition of an ice cold quench buffer consisting of 100 mM NaCl, 50 mM TRIS-HCl pH 7.1 and immediately collected over the filter mat by vacuum filtration with a TomTec 96 well filter harvester using the following filter protocol (Dry time, 7; Cycle 3 repeat, 0; Wash Time, 1; Soak Time, 1; 1st Aspirate Time, 4; Wash/Aspirate Time, 7; 2nd Aspirate, 4; air pressure 2 PSI).
# CD4+ T cells = experiment: T cell proliferation assay; details: 7-10 donors with diverse MHC
# Protocol: This assay assesses the ability of tested antibodies or tested MAPPS peptides to activate CD4+ T cells by inducing cellular proliferation. CD8+ T cell depleted PBMC's are prepared and labeled with CFSE. Each sample is tested with media control, keyhole limpet haemocyanin (KLH; positive clinical benchmark control), tested antibodies, or tested MAPPS peptides. Cultures are incubated for 7 days. On day 7, samples are analyzed by flow cytometry.
# [4] = biological target: T2, human calcitonin receptor (hCTR) (Homo sapiens, UniProt P30988); experiment: hCTR competitive radioligand binding filter assay (125I-hCT); details: ± SE; membranes of hCTR overexpressing cells
# T2 construct: expressed in transfected cells; host or cells: membranes of UM-UC-3 (UMUC3) cells stably expressing human CTa
# T2 sequence (P30988 25-474): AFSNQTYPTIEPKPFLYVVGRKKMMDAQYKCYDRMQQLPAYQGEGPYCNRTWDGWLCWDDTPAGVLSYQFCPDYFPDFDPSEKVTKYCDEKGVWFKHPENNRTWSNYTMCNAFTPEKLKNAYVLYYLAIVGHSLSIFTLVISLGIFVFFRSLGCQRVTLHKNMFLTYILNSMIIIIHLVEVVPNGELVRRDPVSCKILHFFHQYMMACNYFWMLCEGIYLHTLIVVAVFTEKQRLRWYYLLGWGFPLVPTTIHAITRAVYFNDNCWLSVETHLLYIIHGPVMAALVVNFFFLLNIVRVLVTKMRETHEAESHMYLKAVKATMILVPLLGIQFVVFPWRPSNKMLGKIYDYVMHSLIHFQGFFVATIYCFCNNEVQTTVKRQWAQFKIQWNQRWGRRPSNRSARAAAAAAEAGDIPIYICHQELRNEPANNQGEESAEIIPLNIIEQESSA
# Protocol: as §1
# The receptor binding affinity (Ki) of rAMY, hCT, and hAMY agonist peptides on hCTR membranes is determined from a competitive radioligand binding filter assay.
# [5] = 100 nmol/kg SC every three days
compound,measurement,setting,value
CC[C@H](C)[C@H](NC(=O)[C@@H]1CCCN1C(=O)CNC(=O)[C@H](Cc1ccccc1)NC(=O)[C@H](CC(N)=O)NC(=O)[C@H](Cc1c[nH]cn1)NC(=O)[C@H](CO)NC(=O)[C@H](CO)NC(=O)[C@H](CCCNC(=N)N)NC(=O)[C@@H](NC(=O)[C@H](CC(C)C)NC(=O)[C@H](Cc1ccccc1)NC(=O)[C@H](CCC(=O)O)NC(=O)[C@H](C)NC(=O)[C@](C)(CC(C)C)NC(=O)[C@H](CCCN)NC(=O)CNC(=O)[C@@H](NC(=O)[C@H](C)NC(=O)[C@@H]1CSCSC[C@H](NC(=O)[C@@H](N)CCCCNC(=O)CC[C@H](NC(=O)CC[C@H](NC(=O)CCCCCCCCCCCCCCCCCCC(=O)O)C(=O)O)C(=O)O)C(=O)N[C@@H](CCC(=O)O)C(=O)N[C@@H]([C@@H](C)O)C(=O)N[C@@H](C)C(=O)N[C@@H]([C@@H](C)O)C(=O)N1)[C@@H](C)O)C(C)C)C(=O)N[C@@H](CC(C)C)C(=O)N1CCC[C@H]1C(=O)N1CCC[C@H]1C(=O)N[C@H](C(=O)N[C@@H](CCC(=O)O)C(=O)N[C@H](C(=O)NCC(=O)N[C@@H](CO)C(=O)N[C@@H](CC(N)=O)C(=O)N[C@H](C(=O)N[C@@H](Cc1ccc(O)cc1)C(N)=O)[C@@H](C)O)C(C)C)[C@@H](C)O [Compound VIII] (H-K([γGlu-γGlu-C20 diacid])CETATCATG[Orn][αMeL]AEFLVRSSHNFGPILPPTEVGSNTY-NH2; linker 2-7 via CH2),CL/F,"[1]; rat, plasma, n = 3",3.7 mL/h/kg
same,Tmax,"[1]; rat, plasma, n = 3",16 ± 6.9 h
same,half-life,"[1]; rat, plasma, n = 3, read-out: T l/2 (converted)",36.4 ± 2.93 h
same,AUCINF/D,[1]; n = 3,270 ± 22.4 hr * kg * nmol/L/nmol
same,Cmax/D,[1]; n = 3,3.8 ± 0.4 kg * nmol/L/nmol
same,Δ Body Weight,[2]; 0.1 nmol/kg SC single dose,2.0%
same,Cumulative Food Intake Change vs Vehicle,[2]; 0.1 nmol/kg SC single dose,1.3%
same,Δ Body Weight,[2]; 0.3 nmol/kg SC single dose,1.6%
same,Cumulative Food Intake Change vs Vehicle,[2]; 0.3 nmol/kg SC single dose,3.2%
same,Δ Body Weight,[2]; 1 nmol/kg SC single dose,−1.0%
same,Cumulative Food Intake Change vs Vehicle,[2]; 1 nmol/kg SC single dose,−17.5%
same,Δ Body Weight,[2]; 3 nmol/kg SC single dose,−3.9%
same,Cumulative Food Intake Change vs Vehicle,[2]; 3 nmol/kg SC single dose,−37.7%
same,Δ Body Weight,[2]; 10 nmol/kg SC single dose,−7.2%
same,Cumulative Food Intake Change vs Vehicle,[2]; 10 nmol/kg SC single dose,−58.5%
same,Δ Body Weight,[2]; 30 nmol/kg SC single dose,−10.8%
same,Cumulative Food Intake Change vs Vehicle,[2]; 30 nmol/kg SC single dose,−67.0%
same,Δ Body Weight,[2]; 100 nmol/kg SC single dose,−13.8%
same,Cumulative Food Intake Change vs Vehicle,[2]; 100 nmol/kg SC single dose,−75.2%
same,Δ Body Weight,[2]; 300 nmol/kg SC single dose,−13.6%
same,Cumulative Food Intake Change vs Vehicle,[2]; 300 nmol/kg SC single dose,−74.9%
same,Δ Body Weight,[2]; 1000 nmol/kg SC single dose,−18.9%
same,Cumulative Food Intake Change vs Vehicle,[2]; 1000 nmol/kg SC single dose,−84.7%
same,Δ Body Weight,[3]; 1 nmol/kg SC every three days,−6.0%
same,Δ Fat Mass,[3]; 1 nmol/kg SC every three days,-36.6 g
same,Δ Fat-Free Mass,[3]; 1 nmol/kg SC every three days,-4.7 g
same,Δ Body Weight,[3]; 10 nmol/kg SC every three days,−9.0%
same,Δ Fat Mass,[3]; 10 nmol/kg SC every three days,-54.3 g
same,Δ Fat-Free Mass,[3]; 10 nmol/kg SC every three days,-7.2 g
same,Δ Body Weight,[3]; [5],−11.5%
same,Δ Fat Mass,[3]; [5],-56.4 g
same,Δ Fat-Free Mass,[3]; [5],-26.9 g
same,Ki,hAMY1R,0.0435 ± 0.0072 nM
same,"T Cell Proliferation Assay: protein, immunogenicity risk",CD4+ T cells,Low Risk
same,"T Cell Proliferation Assay: protein, positive donors",CD4+ T cells,(1/9
same,Ki,[4],927 ± 120 nM
